Measurements from ChEMBL document CHEMBL1140361, “Tubulin-polymerization inhibitors derived from thalidomide” (2005).

How the values were obtained:
Type in all cases: functional
[1] = tested on: HL-60; assay: Cell growth-inhibitory activity toward human leukemia cell line HL60 at 10 uM concentration
[2] = tested on: HL-60; assay: Cell growth-inhibitory activity toward human leukemia cell line HL60 at 6 uM concentration
[3] = tested on: HL-60; assay: Cell growth-inhibitory activity toward human leukemia cell line HL60 at 3 uM concentration
[4] = species: Sus scrofa; assay: Inhibitory activity against tubulin polymerization at 20 uM

| SMILES | inhibition at 10 µM [1] [%] | inhibition at 6 µM [2] [%] | inhibition at 3 µM [3] [%] | Inhibition [4] [%] |
| --- | --- | --- | --- | --- |
| O=C1c2ccccc2C(=O)N1c1ccccc1 [N-PHENYL-PHTHALIMIDE] | ~0 | ~0 | ~0 |  |
| Cc1cccc(C)c1N1C(=O)c2ccc(O)cc2C1=O | 6 | ~0 | ~0 | <10 |
| O=C1CCC(N2C(=O)c3ccccc3C2=O)C(=O)N1 (stereo not given) [THALIDOMIDE] |  |  |  | <10 |
| CC(C)c1cccc(C(C)C)c1N1C(=O)c2cccc(O)c2C1=O | 8 | ~0 | ~0 | 7 |
| Cc1cccc(C)c1N1C(=O)c2ccccc2C1=O | ~0 | ~0 | ~0 |  |
| O=C1c2cccc(O)c2C(=O)N1c1ccccc1 | ~0 | ~0 | ~0 |  |
| CC(C)c1cccc(C(C)C)c1N1C(=O)c2ccc([N+](=O)[O-])cc2C1=O | 16 | < 5 | ~0 | <10 |
| COc1cc2c(c(OC)c1OC)-c1ccc(OC)c(=O)cc1[C@@H](NC(C)=O)CC2 [COLCHICINE] |  |  |  | 78 |
| CC(C)c1cccc(C(C)C)c1N1C(=O)c2ccc(N)cc2C1=O | 23 | < 5 | ~0 | 81 |
| CC(C)c1cccc(C(C)C)c1N1C(=O)c2ccccc2C1=O | < 5 | ~0 | ~0 | 7 |
| Cc1cccc(C)c1N1C(=O)c2cccc(O)c2C1=O | ~0 | ~0 | ~0 |  |
| CC(C)c1cccc(C(C)C)c1N1C(=O)c2ccc(O)cc2C1=O | ~100 | 72 | 6 | <83 |
| CC(C)c1cccc(C(C)C)c1N1C(=O)c2cccc([N+](=O)[O-])c2C1=O | ~0 | ~0 | ~0 | <10 |
| O=C1c2ccc(O)cc2C(=O)N1c1ccccc1 | 34 | < 5 | ~0 | <10 |
| CC(C)c1cccc(C(C)C)c1N1C(=O)c2cccc(N)c2C1=O | ~0 | ~0 | ~0 | <10 |
